Where “and” joins values, the source holds several entries; their conditions need not be identical. Equal entries are not always repeated.
Experiments:
[1] = system: subjects with osteoarthritis of the knee; test: Osteoarthritis of the Knee Safety Study: safety and tolerability of intra-articular capsaicin; assay type: in vivo, human
Method: The primary objective of the study was to evaluate the safety and tolerability of intra-articular capsaicin, when co-administered with intra-articular local anesthetic, compared to placebo, in subjects with end-stage osteoarthritis of the knee, already scheduled to receive knee replacements.
(§1) The study was designed to include 16 evaluation subjects. […] Sixteen subjects completed the study.
(§2) Patients were treated randomly and in double-blind fashion in four treatment cohorts, with each cohort having a progressively longer interval between the intra-articular administration of study medication and subsequent total knee replacement (2, 4, 7, and 14 days). […] Gross and microscopic pathology analysis was completed for each treatment cohort before the next treatment cohort was treated.
(§3) Each subject had 3 study visits: a Screening Day (Day −7 to −1), the Treatment Day (Day 0), and a Post-Treatment Day (scheduled for Day +2, +4, +7, or +14). On the Treatment Day the subject was randomized, pre-treatment evaluation was performed. The patients were brought into the procedure room, and a VAS pain score was taken (0 mm—no pain, 100 mm—extreme pain). Once the patient had marked his or her pain on the card, he/she was prepped for knee cannulation. Once the cannula was placed, the patient received by intra-articular infiltration, 3 mg/kg (maximum dose of 200 mg) of 2% lignocaine into the knee scheduled to be replaced.
VAS pain scores as well as verbal reports were taken immediately following administration, as well as prior to knee replacement surgery. No subjects discontinued from the study due to adverse events.
On the Post-Treatment Day, study evaluation was performed followed by the scheduled knee replacement, with intra-operative bone and soft tissue biopsies performed for subsequent examination. […] This therefore left the 3 placebo and 9 active patients from the 4 day, 7 day, and 14 day cohorts.

[2] = system: radiation induced hyperalgesia; settings: systemically delivered, cited from earlier work
[3] = system: subjects with osteoarthritis of the knee; test: Osteoarthritis of the Knee Safety Study: VAS pain at the target knee; assay type: in vivo, human
Method: as §1, §2, §3
VAS pain scores as well as verbal reports were taken immediately following administration, as well as prior to knee replacement surgery. No subjects discontinued from the study due to adverse events. […]

[4] = system: subjects undergoing transpositional osteotomy (bunionectomy); test: Bunionectomy Efficacy Study: VAS pain score and rescue medication; assay type: in vivo, human; settings: for VAS pain score (Table 4), mean +/− SEM: 1000 μg into the wound prior to closure, n = 11
Method: The primary efficacy endpoint was the proportion of subjects in each treatment group requiring opioid analgesia in the first 24 hours post-operatively. The proportions were compared amongst treatment groups using the Cochran-Haenszel test. Secondary efficacy end points included: i) proportion of subjects in each treatment group requiring opioid analgesia in the first 36 hour period post-operatively (Similarly, the proportions were compared amongst treatment groups using the Cochran-Haenszel test); ii) proportion of subjects in each treatment group requiring opioid analgesia in the 10 day period post-operatively (Similarly, the proportions were compared amongst treatment groups using the Cochran-Haenszel test); iii) time to first usage of opioid analgesia in each treatment group (a survival analysis approach will be used: the product-limit (Kaplan-Meier) method will be applied to time to first usage of opioid analgesia. The median time to first usage of opioid analgesia will be estimated in both treatment groups. Pairwise comparisons will be performed to test for equality of the survival curves between the 2 treatment groups using both the log-rank and the Wilcoxon test); iv) total usage of analgesia in each treatment group (the total usage of analgesia will be compared by an analysis of variance with treatment and center as independent variables. A pairwise comparison will be performed between the treatment groups); and v) VAS assessment of pain at the site of operation in each treatment group (The VAS score at each time point will be compared by an analysis of variance with treatment and center as independent variables. A pairwise comparison will be performed between the treatment groups). […] The efficacy analysis was performed on the data obtained ten days postoperatively. The safety analysis was performed based on the safety data for the entire study, including the 6 week and 12 week follow-up periods. The blind was broken at the time the efficacy analysis was performed. However, the individual treatment assignment was available to the statistical analysis group only. All other personnel involved in the study, including the Investigator, study monitor and proprietary staff, remained blinded until the entire study was completed.
The study was designed to include 40 evaluation subjects. […] Each subject had six (6) study visits: a Screening Day (Day −28 to −1), an Operation Day (Day 0), and four (4) Follow-up visits (scheduled for Days 3, 10 and weeks 6 and 12).
On Operation Day (Day 0) the following was performed: a) Pre-operation: Prior to the initiation of an ankle block, inclusion/exclusion criteria assessment was performed. […] Immediately prior to wound closure, the Investigator slowly dripped the study medication (4 mL) from a syringe into the wound, ensuring even tissue exposure. The wound was then closed according to normal practices and procedures.
In the 24 hours following administration of study medication, vital signs (supine pulse rate and blood pressure) were recorded at 1, 2, 4 and 24 hours post administration. VAS assessment of pain at the operation site was performed at 1, 4, 8, 12 and 24 hours post administration. In those instances where VAS measurements coincide with blood sampling procedures, the VAS assessment was performed first. […] The quantity of each blood sample was 10 mL. Laboratory safety assessments, e.g., haematology, biochemistry, urinalysis were performed at 24 hours post administration. Adverse events were spontaneously reported by the subject and recorded. Rescue analgesia medication was provided to the subject if required (initially diclofenac 50 mg, repeated at 8 hourly intervals if necessary). When diclofenac was judged by the Investigator to provide inadequate pain relief then the subject was provided with alfentanil, 1 mg, repeated at 6 hourly intervals when necessary.

In the case of `COc1cc(CNC(=O)CCCC/C=C/C(C)C)ccc1O` [capsaicin, N-(4-hydroxy-3-methoxybenzyl)-8-methylnon-trans-6-enamide], the “duration of post-administration (hyper) algesic pain” value ([1]; 300 μg dose group, individual subjects) is reported as 17 minutes and 25 minutes (2×) and 42 minutes, the “proprioception at the injected knee” value ([1]; any dose group, any time point) is reported as “no discernable effect” and the “average duration of post injection hyperalgesia” value ([1]; burning sensation, 100 and 300 μg dose groups) is reported as “less than thirty minutes”. The “erythema, edema or hemorrhage at the site of injection” value ([1]; in vivo) was “no treatment related signs”, the “histopathological examination of soft tissue, cartilage and bone” value ([1]; in vivo) was “no treatment related effects on soft tissue, cartilage, or bone” and the “laboratory safety parameters and vital signs” value ([1]; in vivo) was “no treatment related effects on laboratory safety parameters or vital signs”. For the same compound, the systemic side effects ([1]; in vivo) was “No treatment related systemic side effects were seen”, the “leakage of study drug from the joint space” value ([1]; intra-articular, knee) was “low leakage” and the “gross and microscopic pathology” value ([1]; knee tissue at replacement) was “normal”. For the same compound, the “effect on radiation induced hyperalgesia” value ([2]; final doses of 25 mg/kg or less prior to ultra violet radiation) was “prevented radiation induced hyperalgesia”, the “effect on pain threshold” value ([2]; final doses of 25 mg/kg or less) was “did not elevate the pain threshold above normal range” and the “reduction of VAS pain score, prior to drug administration vs day of surgery” value ([3]; 9 active patients of the 4 day, 7 day and 14 day cohorts, 10, 100 and 300 μg pooled) was 62±14%. The “treatment related indication of efficacy (VAS)” value ([3]; dose levels 10 μg, 100 μg and 300 μg) was “No clear treatment related indication of efficacy was seen”, the “VAS pain score (Table 4), mean +/− SEM” value ([4]; 8 hr) was 5.5 +/− 2.3 and the “VAS pain score (Table 4), mean +/− SEM” value ([4]; 12 hr) was 8.2 +/− 3.8. The “VAS pain score (Table 4), mean +/− SEM” value ([4]; 24 hr) was 1.9 +/− 1.0, the “VAS pain score (Table 4), mean +/− SEM” value ([4]; 48 hr) was 5.9 +/− 2.5 and the “effect on opioid rescue” value ([4]; 1000 μg prior to wound closure) was “decreased opioid rescue”. The “time at which a subject required rescue” value ([4]; 1000 μg prior to wound closure, individual subjects) was 1 h and 4 h and 5 h and 8 h and 12 h.
